Data reported in ChEMBL document CHEMBL1201862, “PubChem BioAssay data set” (2004).
Activity calls are given as the source filed them.

Assays:
Interleukin-8 = target: T1, Interleukin-8 (Homo sapiens, UniProt P10145); experiment: Dose Response confirmation of uHTS small molecule hits for cystic fibrosis induced NFkb Inhibitors in a PAF-induced IL8 counterscreen.; assay type: functional; details: read-out: IC50_Mean
T1 sequence (P10145 whole entry): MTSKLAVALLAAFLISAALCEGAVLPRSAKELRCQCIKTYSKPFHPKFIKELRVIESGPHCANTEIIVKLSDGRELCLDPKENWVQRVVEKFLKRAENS

Kallikrein-7 = Kallikrein-7 (Homo sapiens, UniProt P49862); experiment: Fluorescence Intensity-based biochemical primary high throughput dose response assay to identify activators of kallikrein-7 (K7) zymogen.
Sequence of Kallikrein-7 (P49862 whole entry): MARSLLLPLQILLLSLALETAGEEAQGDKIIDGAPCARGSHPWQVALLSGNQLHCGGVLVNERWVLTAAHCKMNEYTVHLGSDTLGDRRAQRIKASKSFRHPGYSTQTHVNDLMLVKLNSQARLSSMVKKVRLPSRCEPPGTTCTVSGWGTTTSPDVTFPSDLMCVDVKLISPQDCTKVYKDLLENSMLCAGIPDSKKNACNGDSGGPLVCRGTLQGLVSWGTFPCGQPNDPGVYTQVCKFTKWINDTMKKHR

[1] = fluconazole-exposed Candida albicans growth modulators – fluorescence, retest, confirmation (AID 2467); assay type: functional, cell-based
[2] = NIH-3T3 fibroblast cytotoxicity, dose response, cytotoxicity control, cell-based, fluorescence, Alamar Blue, secondary assay (AID 2327); assay type: functional;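 further: NIH-3T3 mouse fibroblasts cultured with fluconazole at 8 µg/mL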
[3] = target: Endoplasmic reticulum aminopeptidase 1 (Homo sapiens, UniProt Q9NZ08); experiment: inhibition of human ERAP1 enzyme activity – biochemical, cherry-pick, set 2, plate reader, dose response (AID 743314)
Sequence of Endoplasmic reticulum aminopeptidase 1 (Q9NZ08 whole entry): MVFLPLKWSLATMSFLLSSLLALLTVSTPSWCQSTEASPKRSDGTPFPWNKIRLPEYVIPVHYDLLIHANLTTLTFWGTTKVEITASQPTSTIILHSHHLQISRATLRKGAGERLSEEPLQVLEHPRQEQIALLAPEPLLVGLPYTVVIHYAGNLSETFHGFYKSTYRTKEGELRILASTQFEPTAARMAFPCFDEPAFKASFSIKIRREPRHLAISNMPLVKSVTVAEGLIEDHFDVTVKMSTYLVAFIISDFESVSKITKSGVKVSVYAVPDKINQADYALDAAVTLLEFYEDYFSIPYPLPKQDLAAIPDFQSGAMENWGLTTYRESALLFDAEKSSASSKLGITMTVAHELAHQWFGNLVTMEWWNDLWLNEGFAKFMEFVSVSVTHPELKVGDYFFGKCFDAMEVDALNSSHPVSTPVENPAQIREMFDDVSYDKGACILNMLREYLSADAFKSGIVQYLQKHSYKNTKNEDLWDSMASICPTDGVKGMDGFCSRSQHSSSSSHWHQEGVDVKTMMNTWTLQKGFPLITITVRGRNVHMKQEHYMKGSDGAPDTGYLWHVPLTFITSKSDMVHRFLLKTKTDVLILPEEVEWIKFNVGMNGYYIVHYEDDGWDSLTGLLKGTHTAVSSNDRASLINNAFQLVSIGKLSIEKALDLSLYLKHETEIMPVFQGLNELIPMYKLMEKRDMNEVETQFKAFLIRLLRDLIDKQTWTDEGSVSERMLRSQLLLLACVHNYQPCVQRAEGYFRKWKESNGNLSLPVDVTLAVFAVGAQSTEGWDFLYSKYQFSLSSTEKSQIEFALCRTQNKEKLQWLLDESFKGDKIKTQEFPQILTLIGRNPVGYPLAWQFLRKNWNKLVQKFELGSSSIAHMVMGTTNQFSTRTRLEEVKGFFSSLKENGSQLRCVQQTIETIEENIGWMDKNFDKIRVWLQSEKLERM

[4] = target: T2, Serine/threonine-protein phosphatase (Homo sapiens, UniProt Q9BPW0); experiment: Counterscreen for inhibitors of PP1: fluorescence-based biochemical high throughput dose response assay to identify inhibitors of Protein Phosphatase 5 (PP5). [Related pubchem assays: 2034 (Summary (PP5 inhibitors)), 1987 (PP5 inhibitors in singlate), 2235 (PP1 inhibitors in singlate)]
T2 sequence (Q9BPW0 whole entry): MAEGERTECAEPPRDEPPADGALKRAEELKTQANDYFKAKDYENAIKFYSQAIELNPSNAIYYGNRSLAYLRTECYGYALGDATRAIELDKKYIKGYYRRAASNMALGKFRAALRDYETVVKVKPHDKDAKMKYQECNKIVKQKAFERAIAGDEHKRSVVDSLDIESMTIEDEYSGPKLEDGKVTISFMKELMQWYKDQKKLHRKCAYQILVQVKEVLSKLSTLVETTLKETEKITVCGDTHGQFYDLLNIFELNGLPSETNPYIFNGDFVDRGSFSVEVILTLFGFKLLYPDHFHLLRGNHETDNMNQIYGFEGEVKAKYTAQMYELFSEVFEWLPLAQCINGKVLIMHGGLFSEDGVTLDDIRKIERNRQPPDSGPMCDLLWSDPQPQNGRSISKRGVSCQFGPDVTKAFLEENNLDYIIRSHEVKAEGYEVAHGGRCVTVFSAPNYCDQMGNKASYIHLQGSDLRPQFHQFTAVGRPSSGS

Aminopeptidase N = target: T3, Aminopeptidase N (Plasmodium falciparum FcB1/Columbia, UniProt O96935); experiment: malaria alanyl aminopeptidase activity blockers – biochemical, fluorogenic H-Leu-NHMec substrate, 1536-well (AID 1445); design: species or system Plasmodium falciparum 3D7, 3D7
T3 sequence (O96935 whole entry): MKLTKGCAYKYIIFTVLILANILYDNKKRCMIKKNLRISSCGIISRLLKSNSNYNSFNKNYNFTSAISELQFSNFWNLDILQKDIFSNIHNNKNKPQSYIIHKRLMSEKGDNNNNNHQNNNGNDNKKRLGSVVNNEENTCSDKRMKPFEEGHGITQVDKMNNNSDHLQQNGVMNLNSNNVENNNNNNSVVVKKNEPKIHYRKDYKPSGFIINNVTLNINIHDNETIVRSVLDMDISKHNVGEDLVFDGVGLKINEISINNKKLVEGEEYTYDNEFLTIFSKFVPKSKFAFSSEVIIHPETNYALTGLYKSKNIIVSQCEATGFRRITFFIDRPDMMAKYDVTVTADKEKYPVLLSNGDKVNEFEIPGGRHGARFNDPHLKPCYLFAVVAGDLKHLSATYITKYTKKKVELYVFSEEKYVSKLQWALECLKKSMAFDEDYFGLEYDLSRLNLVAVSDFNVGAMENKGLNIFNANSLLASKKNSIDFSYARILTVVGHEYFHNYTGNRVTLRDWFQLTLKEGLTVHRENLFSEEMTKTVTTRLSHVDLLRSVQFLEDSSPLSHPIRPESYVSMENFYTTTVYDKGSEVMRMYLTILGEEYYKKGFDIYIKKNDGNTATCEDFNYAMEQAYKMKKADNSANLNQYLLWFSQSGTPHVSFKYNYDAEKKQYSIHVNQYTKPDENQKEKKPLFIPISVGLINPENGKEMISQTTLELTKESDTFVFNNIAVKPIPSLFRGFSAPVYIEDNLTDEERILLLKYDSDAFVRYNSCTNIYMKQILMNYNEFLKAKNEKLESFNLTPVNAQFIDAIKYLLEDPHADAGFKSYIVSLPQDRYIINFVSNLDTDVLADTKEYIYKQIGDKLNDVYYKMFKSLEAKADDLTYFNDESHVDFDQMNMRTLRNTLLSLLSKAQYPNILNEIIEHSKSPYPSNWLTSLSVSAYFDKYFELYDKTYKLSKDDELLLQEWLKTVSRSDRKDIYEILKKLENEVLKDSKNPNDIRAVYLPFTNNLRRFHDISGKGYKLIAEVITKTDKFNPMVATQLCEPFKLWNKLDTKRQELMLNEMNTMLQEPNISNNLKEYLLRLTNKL

[5] = target: Serine/threonine-protein phosphatase PP1-alpha catalytic subunit (Homo sapiens, UniProt P62136); experiment: inhibition of protein phosphatase 1 activity – biochemical, fluorescence, dose response (AID 2403);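 further: phosphatase turnover of OMFP into fluorescent 3-O-methylfluorescein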
Sequence of Serine/threonine-protein phosphatase PP1-alpha catalytic subunit (P62136 whole entry): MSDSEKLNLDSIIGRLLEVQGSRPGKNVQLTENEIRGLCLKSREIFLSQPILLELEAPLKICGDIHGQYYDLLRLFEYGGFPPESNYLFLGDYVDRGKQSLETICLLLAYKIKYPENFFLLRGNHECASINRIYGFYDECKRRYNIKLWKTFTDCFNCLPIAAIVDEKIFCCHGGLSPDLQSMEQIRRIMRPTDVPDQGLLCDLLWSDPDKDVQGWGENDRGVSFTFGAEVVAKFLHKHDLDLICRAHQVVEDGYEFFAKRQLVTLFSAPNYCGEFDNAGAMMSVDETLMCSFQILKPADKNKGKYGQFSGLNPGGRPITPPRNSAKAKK

[6] = target: C-X-C chemokine receptor type 4 (Homo sapiens, UniProt P61073); experiment: SAR analysis of small molecule antagonists of the CXCR6 receptor using a CXCR4 receptor luminescent beta-arrestin counterscreen.; assay type: functional
Sequence of C-X-C chemokine receptor type 4 (P61073 whole entry): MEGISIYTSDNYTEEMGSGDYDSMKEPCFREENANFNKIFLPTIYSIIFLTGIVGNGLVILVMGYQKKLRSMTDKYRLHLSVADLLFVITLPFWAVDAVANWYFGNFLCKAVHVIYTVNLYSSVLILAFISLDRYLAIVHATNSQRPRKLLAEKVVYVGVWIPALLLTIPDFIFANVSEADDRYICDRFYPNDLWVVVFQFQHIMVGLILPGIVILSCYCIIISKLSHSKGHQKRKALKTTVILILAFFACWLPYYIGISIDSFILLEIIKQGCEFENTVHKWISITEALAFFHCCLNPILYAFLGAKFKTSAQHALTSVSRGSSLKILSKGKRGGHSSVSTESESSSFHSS

[7] = target: C-C chemokine receptor type 6 (Homo sapiens, UniProt P51684); experiment: SAR analysis of small molecule antagonists of the CXCR6 receptor using a CCR6 receptor luminescent beta-arrestin counterscreen.; assay type: functional
Sequence of C-C chemokine receptor type 6 (P51684 whole entry): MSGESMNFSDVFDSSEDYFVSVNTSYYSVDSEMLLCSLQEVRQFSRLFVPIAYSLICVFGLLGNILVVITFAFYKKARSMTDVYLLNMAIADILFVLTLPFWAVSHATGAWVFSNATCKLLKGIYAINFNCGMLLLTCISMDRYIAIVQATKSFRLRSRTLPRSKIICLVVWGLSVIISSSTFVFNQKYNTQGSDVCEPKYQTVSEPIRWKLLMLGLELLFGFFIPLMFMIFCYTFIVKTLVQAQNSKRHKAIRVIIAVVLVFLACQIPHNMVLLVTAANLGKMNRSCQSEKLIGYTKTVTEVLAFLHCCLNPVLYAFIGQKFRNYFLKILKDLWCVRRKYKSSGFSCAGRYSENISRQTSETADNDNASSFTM

fMet-Leu-Phe receptor = fMet-Leu-Phe receptor (Homo sapiens, UniProt P21462); experiment: formyl peptide receptor binders – dose response (AID 519); assay type: functional
Sequence of fMet-Leu-Phe receptor (P21462 whole entry): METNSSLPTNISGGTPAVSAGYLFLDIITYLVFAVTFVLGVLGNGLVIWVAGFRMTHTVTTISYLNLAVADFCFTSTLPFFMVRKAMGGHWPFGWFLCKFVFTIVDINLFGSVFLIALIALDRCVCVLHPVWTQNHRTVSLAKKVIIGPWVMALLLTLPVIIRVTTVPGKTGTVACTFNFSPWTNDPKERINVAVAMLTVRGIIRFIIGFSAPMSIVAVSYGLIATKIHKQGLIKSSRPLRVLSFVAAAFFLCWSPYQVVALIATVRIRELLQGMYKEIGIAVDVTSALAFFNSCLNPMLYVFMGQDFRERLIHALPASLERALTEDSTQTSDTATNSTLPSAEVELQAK

Caspase-6 = Caspase-6 (Homo sapiens, UniProt P55212); experiment: inhibition of CASP6 peptide cleavage – biochemical, VEID-R110 fluorescence, cherry-pick, dose response (AID 720632)
Sequence of Caspase-6 (P55212 24-179 limits assumed): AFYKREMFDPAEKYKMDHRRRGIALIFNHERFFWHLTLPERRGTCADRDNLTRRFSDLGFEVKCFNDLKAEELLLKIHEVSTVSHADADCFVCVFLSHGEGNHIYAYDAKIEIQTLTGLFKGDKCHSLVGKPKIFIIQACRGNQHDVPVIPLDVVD
Sequence of Caspase-6 (P55212 194-293 limits assumed): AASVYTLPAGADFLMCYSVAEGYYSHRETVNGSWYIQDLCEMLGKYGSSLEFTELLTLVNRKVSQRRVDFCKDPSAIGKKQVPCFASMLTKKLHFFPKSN

Large T antigen = Large T antigen (Simian virus 40, UniProt P03070); assay type: functional, Betapolyomavirus macacae;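 further: Confirmatory-stage PubChem screen for compounds that inhibit SV40 T antigen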
Sequence of Large T antigen (P03070 whole entry): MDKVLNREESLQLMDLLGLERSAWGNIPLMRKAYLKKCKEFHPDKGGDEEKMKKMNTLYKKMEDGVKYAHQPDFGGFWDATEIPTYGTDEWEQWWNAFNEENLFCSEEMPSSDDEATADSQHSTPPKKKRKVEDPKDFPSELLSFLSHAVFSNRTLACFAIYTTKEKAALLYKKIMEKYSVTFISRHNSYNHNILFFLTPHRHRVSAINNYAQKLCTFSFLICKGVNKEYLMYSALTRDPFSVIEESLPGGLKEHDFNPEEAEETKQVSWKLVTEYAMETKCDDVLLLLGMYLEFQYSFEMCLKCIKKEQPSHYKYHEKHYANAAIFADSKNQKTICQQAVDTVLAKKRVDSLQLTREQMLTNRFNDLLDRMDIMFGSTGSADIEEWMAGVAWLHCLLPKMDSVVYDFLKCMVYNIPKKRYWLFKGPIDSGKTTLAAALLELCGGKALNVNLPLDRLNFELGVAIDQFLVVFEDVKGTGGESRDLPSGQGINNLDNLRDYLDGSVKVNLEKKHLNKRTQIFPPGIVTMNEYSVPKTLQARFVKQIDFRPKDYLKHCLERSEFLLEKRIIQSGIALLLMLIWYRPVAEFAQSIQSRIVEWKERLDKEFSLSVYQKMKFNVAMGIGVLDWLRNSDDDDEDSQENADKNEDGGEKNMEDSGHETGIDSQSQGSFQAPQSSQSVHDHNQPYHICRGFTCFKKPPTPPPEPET

INS1 = experiment: INS-1E survival protection against cytokine death – cell-based, luminescence, retest, dose response (AID 449756); assay type: functional; details: Rattus norvegicus;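 further: cell death triggered by IL-1 beta plus TNF-alpha plus IFN-gamma mixture; protective hits raise ATP signal compared with cytokine alone wells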
[8] = IC50 of Artemis nuclease activity blockers – biochemical, fluorescence intensity, dose response (AID 720701); assay type: functional;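 further: Artemis endonuclease enzyme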

With `COc1ccc(-c2cc(=O)oc3cc(OC(=O)C4CCCCC4)c(Cl)cc23)cc1` the IC50 (Interleukin-8) was 4.55 µM (active), the EC50 (Kallikrein-7) was > 69.5 µM (inactive) and the EC50 [1] was 1.9 µM (active). For the same compound, the EC50 [2] was 34.6 µM (active).
In the case of `CCCCCCC[C@H](N)[C@H](O)C(=O)N(C)[C@@H](CC[S+](C)[O-])C(=O)N[C@@H](Cc1ccc(O)cc1)C(=O)N[C@@H](Cc1ccc(O)cc1)C(=O)O` (stereo not given in full), the AC50 [3] is reported as 8.53 µM (active), the IC50 [4] is reported as 0.578 µM (active) and the IC50 (Aminopeptidase N) is reported as 16.8 µM (active). The IC50 [5] was 0.227 µM (active).
For `COc1cc(C(=O)NC2CC3CCCC(C2)N3CC(=O)Nc2ccccc2)cc(OC)c1OC` (stereo not given), the IC50 [6] was > 79 µM (inactive) and the IC50 [7] was > 79 µM (inactive).
With `Cc1cc(SCC(N)=O)nc(SCC(=O)c2ccccc2)n1` the Ki (fMet-Leu-Phe receptor) was > 66.7 µM (inactive).
In the case of `COc1ccc(Br)cc1C1CC(=O)N2CN(C)CSC2=C1C#N` (stereo not given), the AC50 (Caspase-6) is reported as 39.2 µM (active) and the IC50 (Large T antigen) is reported as 76.9 µM (active).
For `c1ccc(-c2nnc3sc(-c4csc5c4CCCC5)nn23)cc1`, the AC50 (INS1) was 64.1 µM (active) and the IC50 [8] was > 20 µM (inactive).
